Test results from patent publication USRE48335E1, “Polymyxin derivatives as antimicrobial compounds” (priority 2014, dated 2020).
In brackets after ≈: the same amount, converted by molar mass. Positions of bridges follow the written chain, without caps; N, C: chain ends. Non-standard residues stand in square brackets, D forms with d. Residues, ends and D or L forms follow the SMILES beside them. *: point of attachment. Lauroyl = CCCCCCCCCCCC(=O)*; Decanoyl = CCCCCCCCCC(=O)*; Heptanoyl = CCCCCCC(=O)*; Octanoyl = CCCCCCCC(=O)*; Orn = NCCC[C@H](N)C(=O)O; Dab = NCC[C@H](N)C(=O)O; Abu = CC[C@H](N)C(=O)O; Dap = NC[C@H](N)C(=O)O; Hexanoyl = CCCCCC(=O)*; X27 = Cc1ccccc1C(=O)*

How the values were obtained:
Enterobacter cloacae = tested on: Enterobacter cloacae
Procedure, shortened: (§1)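 Lipopeptide TFA salts are serially diluted in cation-adjusted Mueller-Hinton broth and inoculated per the CLSI M100-S18 broth microdilution method. The MIC is then recorded, with polymyxin B sulphate included as a control.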

Klebsiella pneumoniae = tested on: Klebsiella pneumoniae
Procedure, shortened: as §1

Pseudomonas aeruginosa = tested on: Pseudomonas aeruginosa
Procedure, shortened: as §1

Acinetobacter baumannii = tested on: Acinetobacter baumannii
Procedure, shortened: as §1

Structure (SMILES) | Minimum inhibitory concentration, Ec FADDI-EC001 (Enterobacter cloacae) | Minimum inhibitory concentration, Ec FADDI-EC003 (Enterobacter cloacae) | Minimum inhibitory concentration, Ec FADDI-EC006 (Enterobacter cloacae) | MIC (Klebsiella pneumoniae) | MIC (Pseudomonas aeruginosa) | Minimum inhibitory concentration, Pa ATCC 27853 (Pseudomonas aeruginosa) | Minimum inhibitory concentration, Pa FADDI-PA022 (Pseudomonas aeruginosa) | Minimum inhibitory concentration, Pa FADDI-PA025 (Pseudomonas aeruginosa) | MIC (Acinetobacter baumannii) | Minimum inhibitory concentration, Ab A ATCC 17978 (Acinetobacter baumannii) | Minimum inhibitory concentration, Ab ATCC 19606 (Acinetobacter baumannii) | Minimum inhibitory concentration, Ab FADDI-AB034 (Acinetobacter baumannii)
CCCCCCCC(=O)N[C@@H](CCN)C(=O)N[C@H](C(=O)N[C@H](CO)C(=O)N[C@H]1CCNC(=O)[C@H]([C@@H](C)O)NC(=O)[C@H](CCN)NC(=O)[C@H](CCN)NC(=O)[C@H]([C@@H](C)O)NC(=O)[C@@H](Cc2ccccc2)NC(=O)[C@H](CCN)NC1=O)[C@@H](C)O [Compound 3] (Octanoyl-[Dab]T[dS][Dab][Dab][dF]T[Dab][Dab]T; lactam 4-C) | 0.5 µg/mL (≈ 0.429 µM) | <0.125 µg/mL | 0.25 µg/mL (≈ 0.215 µM) | <0.125 µg/mL | 4 µg/mL (≈ 3.44 µM) | 4 µg/mL (≈ 3.44 µM) | 4 µg/mL (≈ 3.44 µM) | >32 µg/mL | 0.25 µg/mL (≈ 0.215 µM) | <0.125 µg/mL | 0.25 µg/mL (≈ 0.215 µM) | <0.125 µg/mL
CCCCCCCC(=O)N[C@@H](CCN)C(=O)N[C@H](C(=O)N[C@H](CO)C(=O)N[C@H]1CCNC(=O)[C@H]([C@@H](C)O)NC(=O)[C@H](CCN)NC(=O)[C@H](CCN)NC(=O)[C@H](CO)NC(=O)[C@@H](CC(C)C)NC(=O)[C@H](CCN)NC1=O)[C@@H](C)O [Compound 6] (Octanoyl-[Dab]T[dS][Dab][Dab][dL]S[Dab][Dab]T; lactam 4-C) | 0.25 µg/mL (≈ 0.224 µM) | 0.25 µg/mL (≈ 0.224 µM) | 0.25 µg/mL (≈ 0.224 µM) | 0.5 µg/mL (≈ 0.448 µM) | >32 µg/mL | >32 µg/mL | 4 µg/mL (≈ 3.58 µM) | >32 µg/mL | 1 µg/mL (≈ 0.896 µM) | 1 µg/mL (≈ 0.896 µM) | 1 µg/mL (≈ 0.896 µM) | 0.5 µg/mL (≈ 0.448 µM)
CCCCCCCCCC(=O)N[C@@H](CCN)C(=O)N[C@H](C(=O)N[C@@H](CCN)C(=O)N[C@H]1CCNC(=O)[C@H]([C@@H](C)O)NC(=O)[C@H](CCN)NC(=O)[C@H](CCN)NC(=O)[C@H](C(C)C)NC(=O)[C@@H](CC(C)C)NC(=O)[C@H](CCN)NC1=O)[C@@H](C)O [Compound 41] (Decanoyl-[Dab]T[Dab][Dab][Dab][dL]V[Dab][Dab]T; lactam 4-C) | 1 µg/mL (≈ 0.855 µM) | 0.5 µg/mL (≈ 0.428 µM) | 0.5 µg/mL (≈ 0.428 µM) |  |  | 1 µg/mL (≈ 0.855 µM) | 4 µg/mL (≈ 3.42 µM) | 2 µg/mL (≈ 1.71 µM) |  | 1 µg/mL (≈ 0.855 µM) | 1 µg/mL (≈ 0.855 µM) | 0.5 µg/mL (≈ 0.428 µM)
CCCCCCCC(=O)N[C@@H](CCN)C(=O)N[C@H](C(=O)N[C@@H](CCCN)C(=O)N[C@H]1CCNC(=O)[C@H]([C@@H](C)O)NC(=O)[C@H](CCN)NC(=O)[C@H](CCN)NC(=O)[C@H]([C@@H](C)O)NC(=O)[C@@H](CC(C)C)NC(=O)[C@H](CCN)NC1=O)[C@@H](C)O [Compound 34] (Octanoyl-[Dab]T[Orn][Dab][Dab][dL]T[Dab][Dab]T; lactam 4-C) | <0.125 µg/mL | <0.125 µg/mL | 4 µg/mL (≈ 3.46 µM) |  |  | 1 µg/mL (≈ 0.864 µM) | 0.5 µg/mL (≈ 0.432 µM) | >32 µg/mL |  | 2 µg/mL (≈ 1.73 µM) | 2 µg/mL (≈ 1.73 µM) | 2 µg/mL (≈ 1.73 µM)
CCCCCCC(=O)N[C@@H](CCN)C(=O)N[C@H](C(=O)N[C@@H](CCN)C(=O)N[C@H]1CCNC(=O)[C@H]([C@@H](C)O)NC(=O)[C@H](CCN)NC(=O)[C@H](CCN)NC(=O)[C@H]([C@@H](C)O)NC(=O)[C@@H](CC(C)C)NC(=O)[C@H](CCN)NC1=O)[C@@H](C)O [Compound 42] (Heptanoyl-[Dab]T[Dab][Dab][Dab][dL]T[Dab][Dab]T; lactam 4-C) | <0.125 µg/mL | <0.125 µg/mL | 0.25 µg/mL (≈ 0.221 µM) |  |  | 0.5 µg/mL (≈ 0.443 µM) | 2 µg/mL (≈ 1.77 µM) | >32 µg/mL |  | 4 µg/mL (≈ 3.54 µM) | 4 µg/mL (≈ 3.54 µM) | 2 µg/mL (≈ 1.77 µM)
CCCCCCCC(=O)N[C@@H](CN)C(=O)N[C@H](C(=O)N[C@@H](CCN)C(=O)N[C@H]1CCNC(=O)[C@H]([C@@H](C)O)NC(=O)[C@H](CCN)NC(=O)[C@H](CCN)NC(=O)[C@H]([C@@H](C)O)NC(=O)[C@@H](CC(C)C)NC(=O)[C@H](CCN)NC1=O)[C@@H](C)O [Compound 31] (Octanoyl-[Dap]T[Dab][Dab][Dab][dL]T[Dab][Dab]T; lactam 4-C) | <0.125 µg/mL | 0.25 µg/mL (≈ 0.221 µM) | 0.5 µg/mL (≈ 0.443 µM) |  |  | 0.5 µg/mL (≈ 0.443 µM) | 0.5 µg/mL (≈ 0.443 µM) | 16 µg/mL (≈ 14.2 µM) |  | 4 µg/mL (≈ 3.54 µM) | 4 µg/mL (≈ 3.54 µM) | 2 µg/mL (≈ 1.77 µM)
CCCCCCCC(=O)N[C@@H](CCN)C(=O)N[C@H](C(=O)N[C@@H](CN)C(=O)N[C@H]1CCNC(=O)[C@H]([C@@H](C)O)NC(=O)[C@H](CN)NC(=O)[C@H](CCN)NC(=O)[C@H]([C@@H](C)O)NC(=O)[C@@H](CC(C)C)NC(=O)[C@H](CCN)NC1=O)[C@@H](C)O [Compound 50] (Octanoyl-[Dab]T[Dap][Dab][Dab][dL]T[Dab][Dap]T; lactam 4-C) | <0.125 µg/mL | <0.125 µg/mL | <0.125 µg/mL |  |  | 1 µg/mL (≈ 0.897 µM) | 0.5 µg/mL (≈ 0.448 µM) | >32 µg/mL |  | 0.5 µg/mL (≈ 0.448 µM) | 0.5 µg/mL (≈ 0.448 µM) | 1 µg/mL (≈ 0.897 µM)
CCCCCCCCCCCC(=O)N[C@@H](CCN)C(=O)N[C@H](C(=O)N[C@@H](CCN)C(=O)N[C@H]1CCNC(=O)[C@H]([C@@H](C)O)NC(=O)[C@H](CCN)NC(=O)[C@H](CCN)NC(=O)[C@H]([C@@H](C)O)NC(=O)[C@@H](CC(C)C)NC(=O)[C@H](CCN)NC1=O)[C@@H](C)O [Compound 28] (Lauroyl-[Dab]T[Dab][Dab][Dab][dL]T[Dab][Dab]T; lactam 4-C) | 0.5 µg/mL (≈ 0.417 µM) | 0.5 µg/mL (≈ 0.417 µM) | 0.5 µg/mL (≈ 0.417 µM) |  |  | 2 µg/mL (≈ 1.67 µM) | 4 µg/mL (≈ 3.33 µM) | 4 µg/mL (≈ 3.33 µM) |  | 2 µg/mL (≈ 1.67 µM) | 2 µg/mL (≈ 1.67 µM) | 1 µg/mL (≈ 0.834 µM)
CCCCCC(=O)N[C@@H](CCN)C(=O)N[C@H](C(=O)N[C@@H](CN)C(=O)N[C@H]1CCNC(=O)[C@H]([C@@H](C)O)NC(=O)[C@H](CCN)NC(=O)[C@H](CCN)NC(=O)[C@H](CC)NC(=O)[C@@H](CC(C)C)NC(=O)[C@H](CCN)NC1=O)[C@@H](C)O [Compound 68] (Hexanoyl-[Dab]T[Dap][Dab][Dab][dL][Abu][Dab][Dab]T; lactam 4-C) | 0.25 µg/mL (≈ 0.23 µM) | <0.125 µg/mL | <0.125 µg/mL |  |  | 0.5 µg/mL (≈ 0.461 µM) | 0.5 µg/mL (≈ 0.461 µM) | 2 µg/mL (≈ 1.84 µM) |  | 1 µg/mL (≈ 0.921 µM) | 2 µg/mL (≈ 1.84 µM) | 1 µg/mL (≈ 0.921 µM)
CC[C@@H]1NC(=O)[C@@H](CC(C)C)NC(=O)[C@H](CCN)NC(=O)[C@@H](NC(=O)[C@H](CN)NC(=O)[C@@H](NC(=O)[C@H](CCN)NC(=O)c2ccccc2C)[C@@H](C)O)CCNC(=O)[C@H]([C@@H](C)O)NC(=O)[C@H](CCN)NC(=O)[C@H](CCN)NC1=O [Compound 75] (X27-[Dab]T[Dap][Dab][Dab][dL][Abu][Dab][Dab]T; lactam 4-C) | 0.25 µg/mL (≈ 0.226 µM) | 0.25 µg/mL (≈ 0.226 µM) | 0.5 µg/mL (≈ 0.452 µM) |  |  | 0.5 µg/mL (≈ 0.452 µM) | 1 µg/mL (≈ 0.905 µM) | 2 µg/mL (≈ 1.81 µM) |  | 1 µg/mL (≈ 0.905 µM) | 1 µg/mL (≈ 0.905 µM) | 1 µg/mL (≈ 0.905 µM)
